Results published in US10793568B2, “Hormone receptor modulators for treating metabolic conditions and disorders” (ARDELYX, INC., priority 2016, dated 2020).
Read-outs that look alike come from different tables or passages of the source.

Assays:
[1] = biological target: ligand binding domain of human FXR (Homo sapiens (Human), UniProt Q96RI1); test: FXR ligand binding assay (LanthaScreen TR-FRET, SRC2-2 peptide recruitment); details: for pEC50 / EC50: -log EC50, concentration required to produce 50% activation; for Emax: read-out: % Efficacy
[2] = biological target: human Farnesoid X receptor ligand-binding domain/Gal4 DNA binding domain chimera (Homo sapiens (Human), UniProt Q96RI1); test: Cell-based assay of FXR activation (FXR-UAS-bla HEK 293T beta-lactamase reporter); details: cellular FXR beta-lactamase reporter assay; for Emax: HEK-293T, read-out: % Efficacy
Outline: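 Readout is cleavage of the CCF4 FRET substrate (409 nm excitation, blue 447 nm signal) by beta-lactamase, expressed under UAS control after a Gal4–human FXR LBD chimera is activated in HEK 293T cells. Compounds were added as 3-fold dilutions for 16 h at 37 °C in 2% charcoal-stripped FBS medium. Curves were fit to a 3-parameter logistic equation to give pEC50, with % activation relative to GW4064.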

[3] = extent of activation relative to GW4064
[4] = FXR-UAS-bla HEK 293T cells, 16 h, pEC50 = -log EC50

Chain of human Farnesoid X receptor ligand-binding domain/Gal4 DNA binding domain chimera (Q96RI1 262-486, change not shown): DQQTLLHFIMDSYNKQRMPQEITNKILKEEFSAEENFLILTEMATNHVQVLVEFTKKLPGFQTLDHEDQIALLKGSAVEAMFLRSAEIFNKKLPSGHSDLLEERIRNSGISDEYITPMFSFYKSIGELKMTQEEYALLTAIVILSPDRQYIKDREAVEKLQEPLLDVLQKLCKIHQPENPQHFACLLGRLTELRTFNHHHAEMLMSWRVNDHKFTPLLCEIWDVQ
Chain of human Farnesoid X receptor ligand-binding domain/Gal4 DNA binding domain chimera (P04386 1-147 partner): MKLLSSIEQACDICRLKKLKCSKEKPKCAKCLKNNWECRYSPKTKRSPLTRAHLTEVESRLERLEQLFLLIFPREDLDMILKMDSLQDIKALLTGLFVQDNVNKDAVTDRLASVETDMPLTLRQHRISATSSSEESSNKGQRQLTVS
Chain of ligand binding domain of human FXR (Q96RI1 262-486): as the sequence (Q96RI1 262-486, change not shown) above

EC50 [1] [nM] | Structure (SMILES) | pEC50 [1] | Emax [1, 3] [%] | Emax [2, 3] [%] | EC50 [2, 4] [nM] | % Efficacy [1, 3] [%] | pEC50 [2, 4] | % Efficacy [2, 3] [%] | Emax [1] [%]
 | CCCS(=O)(=O)NC(=O)c1ccc(N2C[C@@H]3C[C@H]2C[C@H]3OCc2c(-c3ccccc3C(F)(F)F)noc2C2CC2)c(F)c1 [Compound I-200, 4-((1S,4S,5R)-5-((5-cyclopropyl-3-(2-(trifluoromethyl)phenyl)isoxazol-4-yl)methoxy)-2-azabicyclo[2.2.1]heptan-2-yl)-3-fluoro-N-(propylsulfonyl)benzamide] | 8.6 | 215 | 110 | 0.251 |  |  |  | 
 | O=C(NS(=O)(=O)C1CC1)c1ccc(N2C[C@@H]3C[C@H]2C[C@H]3OCc2c(-c3ccccc3C(F)(F)F)noc2C2CC2)c(F)c1 [Compound I-202, 4-((1S,4S,5R)-5-((5-cyclopropyl-3-(2-(trifluoromethyl)phenyl)isoxazol-4-yl)methoxy)-2-azabicyclo[2.2.1]heptan-2-yl)-N-(cyclopropylsulfonyl)-3-fluorobenzamide] | 8.5 |  |  |  | 215 | 9.4 | 114 | 
 | Cc1cccc(Cl)c1-c1noc(C2CC2)c1CO[C@@H]1C[C@@H]2C[C@H]1CN2c1ccc(C(=O)NS(=O)(=O)C2CCOCC2)cc1 [Compound I-203, 4-((1S,4S,5R)-5-((3-(2-chloro-6-methylphenyl)-5-cyclopropylisoxazol-4-yl)methoxy)-2-azabicyclo[2.2.1]heptan-2-yl)-N-((tetrahydro-2H-pyran-4-yl)sulfonyl)benzamide] | 9 | 157 | 102 | 0.158 |  |  |  | 
 | CCCS(=O)(=O)NC(=O)c1ccc(N2C[C@@H]3C[C@H]2C[C@H]3OCc2c(-c3c(Cl)cccc3Cl)noc2C2CC2)nc1 [Compound I-204, 6-((1S,4S,5R)-5-((5-cyclopropyl-3-(2,6-dichlorophenyl)isoxazol-4-yl)methoxy)-2-azabicyclo[2.2.1]heptan-2-yl)-N-(propylsulfonyl)nicotinamide] | 8.4 | 136 | 104 | 2.51 |  |  |  | 
 | O=C(NS(=O)(=O)C1CC1)c1ccc(N2C[C@@H]3C[C@H]2C[C@H]3OCc2c(-c3c(Cl)cccc3Cl)noc2C2CC2)nc1 [Compound I-205, 6-((1S,4S,5R)-5-((5-cyclopropyl-3-(2,6-dichlorophenyl)isoxazol-4-yl)methoxy)-2-azabicyclo[2.2.1]heptan-2-yl)-N-(cyclopropylsulfonyl)nicotinamide] | 8.4 | 142 | 104 | 10 |  |  |  | 
 | CCCS(=O)(=O)NC(=O)c1cnc(N2C[C@@H]3C[C@H]2C[C@H]3OCc2c(-c3c(Cl)cccc3Cl)noc2C2CC2)c(F)c1 [Compound I-206, 6-((1S,4S,5R)-5-((5-cyclopropyl-3-(2,6-dichlorophenyl)isoxazol-4-yl)methoxy)-2-azabicyclo[2.2.1]heptan-2-yl)-5-fluoro-N-(propylsulfonyl)nicotinamide] | 8.4 | 159 | 104 | 1.58 |  |  |  | 
 | O=C(NS(=O)(=O)C1CC1)c1cnc(N2C[C@@H]3C[C@H]2C[C@H]3OCc2c(-c3c(Cl)cccc3Cl)noc2C2CC2)c(F)c1 [Compound I-207, 6-((1S,4S,5R)-5-((5-cyclopropyl-3-(2,6-dichlorophenyl)isoxazol-4-yl)methoxy)-2-azabicyclo[2.2.1]heptan-2-yl)-N-(cyclopropylsulfonyl)-5-fluoronicotinamide] | 8.6 | 152 | 104 | 3.98 |  |  |  | 
10 | CCCS(=O)(=O)NC(=O)c1ccc(N2C[C@@H]3C[C@H]2C[C@H]3OCc2c(-c3c(Cl)cccc3Cl)noc2C2(F)CC2)nc1 [Compound I-208, 6-[(1S,4S,5R)-5-[[3-(2,6-dichlorophenyl)-5-(1 I-fluorocyclopropyl)-1,2-oxazol-4-yl]methoxy]-2-azabicyclo[2.2.1]heptan-2-yl]-N-(propane-1-sulfonyl)pyridine-3-carboxamide] |  | 166 | 104 | 5.01 |  |  |  | 
 | O=C(NS(=O)(=O)C1CC1)c1ccc(N2C[C@@H]3C[C@H]2C[C@H]3OCc2c(-c3c(Cl)cccc3Cl)noc2C2(F)CC2)nc1 [Compound I-209, N-(cyclopropanesulfonyl)-6-[(1S,4S,5R)-5-{[3-(2,6-dichlorophenyl)-5-(1-fluorocyclopropyl)-1,2-oxazol-4-yl]methoxy}-2-azabicyclo[2.2.1]heptan-2-yl]pyridine-3-carboxamide] | 7.8 | 160 | 104 | 15.8 |  |  |  | 
 | O=C(NS(=O)(=O)CCO)c1ccc(N2C[C@@H]3C[C@H]2C[C@H]3OCc2c(-c3c(Cl)cccc3Cl)noc2C2CC2)cc1 [Compound I-210, 4-[(1S,4S,5R)-5-{[5-cyclopropyl-3-(2,6-dichlorophenyl)-1,2-oxazol-4-yl]methoxy}-2-azabicyclo[2.2.1]heptan-2-yl]-N-(2-hydroxyethanesulfonyl)benzamide] | 8.6 | 148 |  | < 31.6 |  |  |  | 
 | CC(=O)OCCS(=O)(=O)NC(=O)c1ccc(N2C[C@@H]3C[C@H]2C[C@H]3OCc2c(-c3c(Cl)cccc3Cl)noc2C2CC2)cc1 [Compound I-211, 2-[({4-[(1S,4S,5R)-5-{[5-cyclopropyl-3-(2,6-dichlorophenyl)-1,2-oxazol-4-yl]methoxy}-2-azabicyclo[2.2.1]heptan-2-yl]phenyl}formamido)sulfonyl]ethyl Acetate] | 8.4 | 152 | 105 | 1 |  |  |  | 
 | O=C(NS(=O)(=O)CCOC(=O)C1CC1)c1ccc(N2C[C@@H]3C[C@H]2C[C@H]3OCc2c(-c3c(Cl)cccc3Cl)noc2C2CC2)cc1 [Compound I-212, 2-[({4-[(1S,4S,5R)-5-{[5-cyclopropyl-3-(2,6-dichlorophenyl)-1,2-oxazol-4-yl]methoxy}-2-azabicyclo[2.2.1]heptan-2-yl]phenyl}formamido)sulfonyl]ethyl Cyclopropanecarboxylate] | 9.2 | 136 | 107 | 2.51 |  |  |  | 
 | CC(C)C(=O)OCCS(=O)(=O)NC(=O)c1ccc(N2C[C@@H]3C[C@H]2C[C@H]3OCc2c(-c3c(Cl)cccc3Cl)noc2C2CC2)cc1 [Compound I-213, 2-[({4-[(1S,4S,5R)-5-{[5-cyclopropyl-3-(2,6-dichlorophenyl)-1,2-oxazol-4-yl]methoxy}-2-azabicyclo[2.2.1]heptan-2-yl]phenyl}formamido)sulfonyl]ethyl 2-methylpropanoate] | 9.4 | 131 |  | < 31.6 |  |  |  | 
 | CC(=O)OCCCS(=O)(=O)NC(=O)c1ccc(N2C[C@@H]3C[C@H]2C[C@H]3OCc2c(-c3c(Cl)cccc3Cl)noc2C2CC2)cc1 [Compound I-214, 3-[({4-[(1S,4S,5R)-5-{[5-cyclopropyl-3-(2,6-dichlorophenyl)-1,2-oxazol-4-yl]methoxy}-2-azabicyclo[2.2.1]heptan-2-yl]phenyl}formamido)sulfonyl]propyl Acetate] | 8.6 | 138 | 105 | 2.51 |  |  |  | 
 | O=C(NS(=O)(=O)CCCO)c1ccc(N2C[C@@H]3C[C@H]2C[C@H]3OCc2c(-c3c(Cl)cccc3Cl)noc2C2CC2)cc1 [Compound I-215, 4-[(1S,4S,5R)-5-{[5-cyclopropyl-3-(2,6-dichlorophenyl)-1,2-oxazol-4-yl]methoxy}-2-azabicyclo[2.2.1]heptan-2-yl]-N-(3-hydroxypropanesulfonyl)benzamide] | 8.6 | 142 | 107 | 1.58 |  |  |  | 
 | CC(=O)OC(C)CCS(=O)(=O)NC(=O)c1ccc(N2C[C@@H]3C[C@H]2C[C@H]3OCc2c(-c3c(Cl)cccc3Cl)noc2C2CC2)cc1 (stereo partly drawn) [Compound I-216, 4-[({4-[(1S,4S,5R)-5-{[5-cyclopropyl-3-(2,6-dichlorophenyl)-1,2-oxazol-4-yl]methoxy}-2-azabicyclo[2.2.1]heptan-2-yl]phenyl}formamido)sulfonyl]butan-2-yl Acetate] | 9.4 |  | 112 | 0.398 |  |  |  | 145
 | CC(O)CCS(=O)(=O)NC(=O)c1ccc(N2C[C@@H]3C[C@H]2C[C@H]3OCc2c(-c3c(Cl)cccc3Cl)noc2C2CC2)cc1 (stereo partly drawn) [Compound I-217, 4-[(1S,4S,5R)-5-{[5-cyclopropyl-3-(2,6-dichlorophenyl)-1,2-oxazol-4-yl]methoxy}-2-azabicyclo[2.2.1]heptan-2-yl]-N-(3-hydroxybutanesulfonyl)benzamide] | 9.9 |  | 111 | 1 |  |  |  | 142
2.51 | CC(CCS(=O)(=O)NC(=O)c1ccc(N2C[C@@H]3C[C@H]2C[C@H]3OCc2c(-c3c(Cl)cccc3Cl)noc2C2CC2)cc1)OC(=O)CCC(=O)O (stereo partly drawn) [Compound I-218, 4-({4-[({4-[(1S,4S,5R)-5-{[5-cyclopropyl-3-(2,6-dichlorophenyl)-1,2-oxazol-4-yl]methoxy}-2-azabicyclo[2.2.1]heptan-2-yl]phenyl}formamido)sulfonyl]butan-2-yl}oxy)-4-oxobutanoic Acid] |  | 146 | 101 | 5.01 |  |  |  | 
 | O=C(NS(=O)(=O)CCC(O)CO)c1ccc(N2C[C@@H]3C[C@H]2C[C@H]3OCc2c(-c3c(Cl)cccc3Cl)noc2C2CC2)cc1 (stereo partly drawn) [Compound I-219, 4-[(1S,4S,5R)-5-{[5-cyclopropyl-3-(2,6-dichlorophenyl)-1,2-oxazol-4-yl]methoxy}-2-azabicyclo[2.2.1]heptan-2-yl]-N-(3,4-dihydroxybutanesulfonyl)benzamide] | 8.6 | 144 | 104 | 39.8 |  |  |  | 
